Source: article PMC8284453 (Antimicrobial Agents and Chemotherapy, 2021)
Values after ≈ are worked out from the molar mass of the structure shown. Values joined by “and” are separate entries in the source; they are usually repeats but may differ in a detail not shown here. Equal entries are not always repeated. Where two headings read alike, the source gives them in different places.

Assays:
[1] = tested on: Enterobacterales expressing class D oxacillinases (OXA-48/48-like); assay: organism not typed; type: cell-based, E. coli, K. pneumoniae
[2] = tested on: E. coli ESBL4 (CTX-M-15); assay: Broth microdilution MIC; type: cell-based; details: Escherichia coli
[3] = tested on: Enterobacterales expressing class C cephalosporinases
[4] = tested on: K. pneumoniae 752286 (OXA-48); assay: Broth microdilution MIC; type: cell-based; details: Klebsiella pneumoniae
[5] = tested on: E. cloacae ECL01 (TEM-72, ACT-1, P99AmpC); assay: Broth microdilution MIC; type: cell-based; details: Enterobacter cloacae
[6] = tested on: E. cloacae ECL01 (TEM-72, ACT-1, P99AmpC); assay: 24-h time-kill assay; type: cell-based; details: Enterobacter cloacae; lowest concentration with ≥3-log10 CFU/ml reduction at 24 h; read-out: MBC
Method in brief: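 Bacteria at 5 × 10^5 CFU/ml in CAMHB, incubated at 37°C with shaking at 200 rpm. Viable counts determined at 0, 2, 4, 6, 8 and 24 h by 0.5 log10 serial dilution with overnight regrowth; quantification limit 2 log10 CFU/ml.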

[7] = 25 isolates, BLI fixed at 4 μg/ml, AMC 2:1

C[C@@H](O)[C@H]1C(=O)N2C(C(=O)O)=C(SC3CN(C4=NCCS4)C3)[C@H](C)[C@H]12 [Tebipenem]
MIC50 [1, 7]: 4 µg/mL and 8 µg/mL | MIC90 [1, 7]: 16 µg/mL and 32 µg/mL | MIC ([1]; E. coli 664507 (OXA-48)): 4 µg/mL (≈ 10.4 µM) | MIC ([1]; E. coli 664516 (OXA-48)): 8 µg/mL (≈ 20.9 µM) | MIC ([1]; E. coli 664520 (OXA-48)): 4 µg/mL (≈ 10.4 µM) | MIC ([1]; E. coli 664522 (OXA-48)): 8 µg/mL (≈ 20.9 µM) | MIC ([1]; E. coli 664523 (OXA-48)): 4 µg/mL (≈ 10.4 µM) | MIC ([1]; E. coli 664524 (OXA-48)): 4 µg/mL (≈ 10.4 µM) | MIC ([1]; E. coli 664525 (OXA-48)): 8 µg/mL (≈ 20.9 µM) | MIC ([1]; E. coli 664526 (OXA-48)): 4 µg/mL (≈ 10.4 µM) | MIC ([1]; E. coli 664528 (OXA-48)): 4 µg/mL (≈ 10.4 µM) | MIC ([1]; E. coli 787112 (OXA-48)): 8 µg/mL (≈ 20.9 µM) | MIC ([1]; E. coli SI-422 (OXA-48)): 1 µg/mL (≈ 2.61 µM) | MIC ([1]; E. coli VER (OXA-48)): 1 µg/mL (≈ 2.61 µM) | MIC ([1]; K. pneumoniae 6299 (OXA-163)): 4 µg/mL (≈ 10.4 µM) | MIC ([1]; K. pneumoniae 515746 (OXA-48), first line): 1 µg/mL (≈ 2.61 µM) | MIC ([1]; K. pneumoniae 515746 (OXA-48), second line): 0.5 µg/mL (≈ 1.3 µM) | MIC ([1]; K. pneumoniae 664438 (OXA-48)): 8 µg/mL (≈ 20.9 µM) | MIC ([1]; K. pneumoniae 664439 (OXA-48)): 4 µg/mL (≈ 10.4 µM) | MIC ([1]; K. pneumoniae 664509 (OXA-48)): ≥ 64 µg/mL | MIC ([1]; K. pneumoniae 664518 (OXA-48)): 4 µg/mL (≈ 10.4 µM) | MIC ([1]; K. pneumoniae 722870 (OXA-48)): 1 µg/mL (≈ 2.61 µM) | MIC ([1]; K. pneumoniae BAH (OXA-204)): 0.5 µg/mL (≈ 1.3 µM) | MIC ([1]; K. pneumoniae DEL (OXA-232)): ≥ 64 µg/mL | MIC ([1]; K. pneumoniae DOV (OXA-48)): 0.5 µg/mL (≈ 1.3 µM) | MIC ([1]; K. pneumoniae KIRK (OXA-162)): 1 µg/mL (≈ 2.61 µM) | MIC ([1]; K. pneumoniae SI-C17 (OXA-48)): 16 µg/mL (≈ 41.7 µM) | MIC [2]: ≤ 0.06 µg/mL | MIC ([3]; C. freundii 134390 (AmpC, TEM-1)): 0.03 µg/mL (≈ 0.0782 µM) | MIC ([3]; E. aerogenes 110099 (AmpC, SHV-12)): 0.12 µg/mL (≈ 0.313 µM) | MIC ([3]; E. aerogenes 111707 (AmpC, TEM-1)): 0.03 µg/mL (≈ 0.0782 µM) | MIC ([3]; E. aerogenes 111902 (AmpC, TEM-1)): 0.12 µg/mL (≈ 0.313 µM) | MIC ([3]; E. coli 128 (AmpC, SHV-12, TEM-1, Toho-2)): ≤ 0. 016 μg/ml | MIC ([3]; E. coli 3102 (AmpC, CTX-M-15, TEM-1)): ≤ 0. 016 μg/ml | MIC ([3]; E. coli CH1 (AmpC, CTX-M-15, SHV-1, SHV-5, TEM-1)): 0.06 µg/mL (≈ 0.156 µM) | MIC ([3]; E. coli EC469 (AmpC, SHV-12, TEM-1)): ≤ 0. 016 μg/ml | MIC ([3]; E. coli J53 (AmpC, SHV-5, TEM-1)): ≤ 0. 016 μg/ml | MIC ([3]; E. coli SI-P026TC (CMY-2, TEM-1)): 0.12 µg/mL (≈ 0.313 µM) | MIC ([3]; E. coli SI-PO26 (AmpC, CMY-2, TEM-1)): 0.03 µg/mL (≈ 0.0782 µM) | MIC ([3]; K. pneumoniae 129032 (MOX-2, SHV-12, TEM-1)): 0.03 µg/mL (≈ 0.0782 µM) | MIC ([3]; K. pneumoniae 178279 (AmpC, SHV-12, TEM-1)): 0.03 µg/mL (≈ 0.0782 µM) | MIC ([3]; K. pneumoniae 212027 (AmpC, FOX-5, TEM-1)): 0.03 µg/mL (≈ 0.0782 µM) | MIC ([3]; K. pneumoniae 217917 (CMY-2, TEM-1)): 0.06 µg/mL (≈ 0.156 µM) | MIC ([3]; K. pneumoniae 301313 (AmpC, SHV-12, TEM-1)): 0.06 µg/mL (≈ 0.156 µM) | MIC ([3]; K. pneumoniae 398845 (CMY-2, SHV-12, TEM-1)): 0.03 µg/mL (≈ 0.0782 µM) | MIC ([3]; K. pneumoniae SI-F100 (CMY-2, SHV-5, TEM-1)): ≤ 0. 016 μg/ml | MIC ([3]; P. mirabilis SI-F014 (AmpC, TEM-72)): 2 µg/mL (≈ 5.22 µM) | MIC ([3]; S. marcescens 132253 (AmpC, CTX-M-3, OXA-1, SHV-12, TEM-1)): 0.5 µg/mL (≈ 1.3 µM) | MIC ([3]; S. marcescens 134434 (AmpC, SHV-12, TEM-1)): 0.5 µg/mL (≈ 1.3 µM) | MIC ([3]; S. marcescens 142397 (AmpC, SHV-7, TEM-1)): 0.25 µg/mL (≈ 0.652 µM) | MIC ([3]; S. marcescens 156212 (AmpC, SHV-12, TEM-1)): 0.25 µg/mL (≈ 0.652 µM) | MIC ([3]; S. marcescens 192478 (AmpC, SHV-12, TEM-1)): 0.12 µg/mL (≈ 0.313 µM) | MIC ([3]; S. marcescens 218068 (AmpC, SHV-7, TEM-1)): 0.25 µg/mL (≈ 0.652 µM) | MIC [4]: 16 µg/mL (≈ 41.7 µM) | MIC [5]: 0.25 µg/mL (≈ 0.652 µM) | MBC [6]: 0.25 µg/mL (≈ 0.652 µM)
